Where two headings read alike, the source gives them in different places.
Columns and labels:
hM1 = target: T1, hM1 (Homo sapiens, UniProt P11229); experiment: hM1 antagonist potency, calcium mobilization assay; type: cell-based; conditions: for % ACh activity remaining: at the highest concentration tested (30 μM)
T1 sequence (P11229 1-460): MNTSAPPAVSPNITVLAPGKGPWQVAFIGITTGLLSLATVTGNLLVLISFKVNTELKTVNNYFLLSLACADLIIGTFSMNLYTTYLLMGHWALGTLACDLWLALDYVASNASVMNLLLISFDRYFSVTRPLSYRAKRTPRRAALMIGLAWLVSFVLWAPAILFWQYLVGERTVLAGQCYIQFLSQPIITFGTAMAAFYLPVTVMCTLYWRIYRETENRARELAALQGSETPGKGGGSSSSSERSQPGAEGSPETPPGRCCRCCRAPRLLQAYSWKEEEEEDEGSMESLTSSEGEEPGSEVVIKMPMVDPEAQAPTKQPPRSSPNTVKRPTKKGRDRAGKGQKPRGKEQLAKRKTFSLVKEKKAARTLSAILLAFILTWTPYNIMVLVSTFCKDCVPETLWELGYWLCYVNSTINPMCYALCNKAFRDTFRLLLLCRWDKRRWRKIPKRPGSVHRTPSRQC

M1 mAChR = experiment: equilibrium radioligand binding, [3H]NMS competition; conditions: Figure 4A
M1 = target: T2, M1 (Homo sapiens, UniProt P11229); type: cell-based; conditions: antagonism of ACh at M1; mean ± S.E.M. of three experiments in triplicate
T2 sequence (P11229 1-460): T1 sequence (P11229 1-460)

rat (r) M1-5 receptors = experiment: calcium mobilization assay, rat M1-5 selectivity; type: cell-based; conditions: CRCs in the presence of an EC80 concentration of ACh; Figure 5
[1] = in vitro hepatic microsome intrinsic clearance; type: in vitro ADME, rat
[2] = tested on: contextual fear conditioning; conditions: at doses that reduced seizures; cited from earlier work
[3] = tested on: pilocarpine-induced seizures; conditions: rodents; cited from earlier work

## O=C(C1CN(S(=O)(=O)c2cccc3nsnc23)C1)N1CCN(c2ccncc2)CC1 [2d]
hM1; hM1, relative to ML012
  fold less active / less potent than ML012: 3 fold

## Cc1ccnc(S(=O)(=O)N2CC(C(=O)N3CCN(c4ccncc4)CC3)C2)c1 [7e]
hM1; hM1
  % ACh activity remaining: 38%

## O=C(C1CN(S(=O)(=O)c2ccc(Cl)cn2)C1)N1CCN(c2ccncc2)CC1 [7f]
hM1; hM1
  % ACh activity remaining: 41%

## O=C(C1CN(S(=O)(=O)c2ccc3c(c2)OCO3)C1)N1CCN(c2ccncc2)CC1 [7o]
M1 mAChR
  displacement of the orthosteric ligand [3H]NMS: complete displacement
M1
  slope of Schild regression: 0.96 ± 0.02

## COc1ccc(S(=O)(=O)N2CC(C(=O)N3CCN(c4ccncc4)CC3)C2)cn1 [7t]
hM1; hM1
  % ACh activity remaining: 20%

## O=C(C1CN(S(=O)(=O)c2ccc(C(F)(F)F)nc2)C1)N1CCN(c2ccncc2)CC1 [7u]
hM1; hM1
  % ACh activity remaining: 40%

## O=C(C1CN(S(=O)(=O)c2ccc3c(c2)CCO3)C1)N1CCN(c2ccncc2)CC1 [7v]
hM1; hM1, relative to ML012
  fold increase in potency: 8 fold

## O=C(C1CN(S(=O)(=O)c2cccc3cnccc23)C1)N1CC2CN(c3ccncc3)CC2C1 (stereo not drawn) [12a]
M1 mAChR
  displacement of the orthosteric ligand [3H]NMS: complete displacement
M1
  slope of Schild regression: 0.94 ± 0.01
Rat (r) M1-5 receptors
  selectivity at rat M1 compared to M2-5: selectively antagonize M1
[1]; predicted from microsome intrinsic clearance
  predicted hepatic clearance (CLHEP): 42.3 mL/min/kg
[1]; rat, hepatic microsomes
  CLint scaled: 107 mL/min/kg

## O=C(C1CN(S(=O)(=O)c2cccc3nonc23)C1)N1CCN(c2ccccn2)CC1 [(1-(Benzo[c][1,2,5]oxadiazol-4-ylsulfonyl)azetidin-3-yl)(4-(pyridin-2-yl)piperazin-1-yl)methanone]
hM1
  IC50: 5000 nM

## Brc1ccc(N2CCNCC2)nc1 [(5-bromopyridin-2-yl)piperazine]
hM1; read-out: hM1 IC50
  IC50: 280 nM

## O=C(CCNS(=O)(=O)c1cccc2nsnc12)N1CCN(c2ccncc2)CC1 [ML012]
[2]
  impact on contextual fear conditioning: no negative impact on contextual fear conditioning
[3]
  effect on pilocarpine-induced seizures: reduced pilocarpine-induced seizures

## CN1[C@@H]2CC[C@H]1C[C@@H](OC(=O)C(CO)c1ccccc1)C2 (stereo partly drawn) [atropine, reference compound]
M1 mAChR
  displacement of the orthosteric ligand [3H]NMS: compete with [^3H]NMS binding at M1

Reference: article PMC3883446 (Bioorganic & medicinal chemistry letters, 2012)
